Measurements as given in patent US20110256557A1, “IDENTIFYING PARATHYROID HORMONE AGONISTS AND ANTAGONISTS” (DISCOVERYBIOMED, INC., priority 2008, published 2011).

Tests used:
[1] = test system: luciferase reporter bearing TCF/LEF binding elements; assay: TCF/LEF luciferase reporter assay in UMR-106 cells; type: cell-based, rat; details: UMR-106 cells, agent alone
Source text: HEK293, UMR-106 and mouse embryonic fibroblast (MEF) cells were maintained in Dulbecco's Modified Eagle Medium (DMEM) with 10% Fetal Calf Serum (FCS). Mouse Wnt3a conditioned medium (Wnt3a CM) was produced from mouse L cells stably transfected with mouse Wnt3a (American Type Culture Collection; Manassas, Va.) and control conditioned medium (Control CM) was from non-transfected L cells. IgG, LRP6N-IgG, DKK1, Sclerostin, VSVG-LRP6N and Myc-Fz8CRD conditioned media were produced from HEK 293 cells transfected with the individual plasmids. Transfections were carried out using lipofectamine reagent (Invitrogen; Carlsbad, Calif.). Luciferase assays were carried out in either UMR-106 or HEK 293 cells as described previously (Wan et al., Am. J. Pathol. 166:1379-92 (2005)), with 0.3 μg of TCF-Luc reporter plasmid plus 50 ng of Renilla luciferase plasmid (internal control) per well in the 12-well plate. Experiments were repeated at least three times with triplicate for each experiment.

β-catenin = assay: Western blot of cytosolic β-catenin in UMR-106 cells; type: cell-based, rat
Protocol: (§1) Cells were harvested in cavitation buffer (5 mM HEPES, pH 7.4, 3 mM MgCl2, 1 mM EGTA, 250 mM sucrose) containing protease and phosphatase inhibitors and homogenized by nitrogen cavitation (200 p.s.i., for 5 minutes) in a cell disruption bomb (Parr Instrument Co.; Moline, Ill.). The cell homogenate was centrifuged twice at 700 g for 10 minutes to pellet the nuclei. The supernatant was further centrifuged at 100,000 g (Beckman SW50.1 rotor) for 1 hour to separate the membrane and cytosol fractions, and the resulting membrane pellet was washed three times with cavitation buffer before use in the assays (Zhang et al., Biochem. J. 343:541-9 (1999)). Immunoprecipitation and Western blot analysis of cell lysates were performed as described previously (Wan et al., Am. J. Pathol. 166:1379-92 (2005)).

CFP-PTH1R and YFP-LRP6 = biological target: T1, CFP-PTH1R and YFP-LRP6 (Homo sapiens, UniProt Q03431); assay: Photobleaching-based FRET of CFP-PTH1R and YFP-LRP6 in HEK293 cells; type: cell-based
T1 construct: expressed in transfected cells; host or cells: HEK293
T1 sequence (Q03431 27-593): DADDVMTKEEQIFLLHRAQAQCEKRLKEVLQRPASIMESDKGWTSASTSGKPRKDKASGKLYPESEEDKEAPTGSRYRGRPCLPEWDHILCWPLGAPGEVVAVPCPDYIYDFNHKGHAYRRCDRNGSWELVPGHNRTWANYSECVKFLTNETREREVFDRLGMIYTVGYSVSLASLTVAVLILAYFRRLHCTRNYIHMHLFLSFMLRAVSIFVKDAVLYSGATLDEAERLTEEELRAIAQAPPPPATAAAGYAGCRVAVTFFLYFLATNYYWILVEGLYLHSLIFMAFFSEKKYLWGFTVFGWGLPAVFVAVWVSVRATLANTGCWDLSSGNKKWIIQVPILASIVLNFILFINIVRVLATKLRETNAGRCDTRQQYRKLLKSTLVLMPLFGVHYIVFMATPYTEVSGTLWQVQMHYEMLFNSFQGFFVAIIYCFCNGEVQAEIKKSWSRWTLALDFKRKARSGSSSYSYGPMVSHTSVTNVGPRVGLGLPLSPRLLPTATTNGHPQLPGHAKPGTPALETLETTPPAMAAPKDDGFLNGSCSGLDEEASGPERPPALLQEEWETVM
Source text: PTH1R and BMPRII cDNAs were cloned into ECFP-N1, and LRP6 and mLRP4T100 cDNAs were cloned into EYFP—N1 (Clonetech; Palo Alto, Calif.) expression vectors. These vectors were modified by site-directed mutagenesis that prevents the self-dimerization (Bhatia et al., Proc. Natl. Acad. Sci. USA 102:15569-74 (2005)). CFP and YFP were fused at the C-termini of the receptors. Because CFP-PTH1R or CFP-BMPRII (the fluorescent FRET donors) is quenched when in the proximity of YFP-LRP6 or YFP-mLRP4T100 (the acceptors), FRET efficiency can be measured by comparing donor fluorescence pre- and post-photobleaching of the acceptor. […] HEK293 cells on coverslips in 35 mm dishes were cotransfected with 0.1 μg of each plasmid. Cells were observed using Leica TCS SP II AOBS laser-scanning confocal microscope. An excitation wavelength of 405 nm and an emission range of 416-492 nm, and an excitation wavelength of 514 nm and an emission range of 525-600 nm were used to acquire images of CFP and YFP, respectively. YFP was photobleached by using full power of the 514 nm line for 1-2 minutes. An image of CFP and YFP fluorescence after photobleaching was obtained by using the respective filter sets. Images were representatives of three experiments. The FRET efficiencies were calculated according to: FRET eff %=[(Donorpost−Donorpre)/(Donorpost)]

Xenopus = assay: LRP6-mediated secondary axis induction in Xenopus embryos; type: in vivo; details: ventral injection of PTH and PTH1R RNA with LRP6 RNA
Source text: RNAs for microinjection were synthesized using SP6 mMessage mMachine in vitro transcription kit (Ambion; Austin, Tex.). […] The doses of RNAs used were: 200 pg LRP6, 2 pg PTH and 50 pg PTH1R.

axin-LRP6 binding = assay: Co-IP of axin binding to LRP6 in HEK293 cells; type: cell-based; details: co-IP, HEK293 cells
Protocol: as §1

[2] = test system: TCF/LEF luciferase reporter; assay: High-throughput screen validation, TCF/LEF luciferase reporter in osteosarcoma cell line; type: cell-based
Protocol: Osteosarcoma cells were plated in a 96 well plate. The cells were transiently transfected with the TCF/LEF luciferase reporter using LipofectAMINE PLUS (Invitrogen; Carlsbad, Calif.). The cells were incubated overnight at 37° C. in OptiMEM-1 serum-free medium with the transfection reagents. The cells were washed and serum-containing medium was added to the cells for 8 hours. The serum-containing medium was replaced with serum-free medium and the cells were stimulated overnight with PTH and WNT3a. Supernatant from the stimulated cells was collected for detection of osteosclerostin, and the cells were subjected to a luciferase assay as previously described (Wan et al., Am. J. Pathol. 166:1379-92 (2005)).
To determine agonists and antagonists of the additive signaling of the PTH receptor and the WNT receptor, (as well as any co-receptors) in bone cells, a high-throughput screen is designed. […] An osteosarcoma cell line is transiently transfected with a TCF/LEF luciferase reporter. The cells are treated with WNT3a and PTH and luciferase activity is determined (FIG. 46).

## Parathyroid hormone [PTH]
[1]
  transcription of a luciferase reporter bearing TCF/LEF binding elements: stimulated
β-catenin
  abundance of β-catenin in the cytosol: enhanced
CFP-PTH1R and YFP-LRP6
  FRET efficiency between CFP-PTH1R and YFP-LRP6: increased
  FRET efficiency in control pairs YFP-LRP6/CFP-BMPRII and CFP-PTH1R/YFP-mLRP4T100: did not enhance the FRET efficiency
Xenopus
  LRP6-induced secondary axis induction: enhanced
axin-LRP6 binding
  binding of axin to LRP6: rapidly increased
[2]; 96-well plate
  stimulation of the TCF/LEF luciferase reporter, treatment alone: does not stimulate
[2]; PTH and WNT3a treatment
  effect on WNT stimulation of the TCF/LEF luciferase reporter: potentiates
